In patent publication US11286243B2 (GLOBAL BLOOD THERAPEUTICS, INC., priority 2018, dated 2022):

Target: T1, human ferroportin (Homo sapiens, UniProt Q9NP59)
T1 construct: luciferase reporter (probably NanoLuc: read with the Nano-Glo Luciferase Assay System); expressed in transfected cells; host or cells: CHO cells, stably transfected, doxycycline-inducible expression
T1 sequence (Q9NP59 1-571): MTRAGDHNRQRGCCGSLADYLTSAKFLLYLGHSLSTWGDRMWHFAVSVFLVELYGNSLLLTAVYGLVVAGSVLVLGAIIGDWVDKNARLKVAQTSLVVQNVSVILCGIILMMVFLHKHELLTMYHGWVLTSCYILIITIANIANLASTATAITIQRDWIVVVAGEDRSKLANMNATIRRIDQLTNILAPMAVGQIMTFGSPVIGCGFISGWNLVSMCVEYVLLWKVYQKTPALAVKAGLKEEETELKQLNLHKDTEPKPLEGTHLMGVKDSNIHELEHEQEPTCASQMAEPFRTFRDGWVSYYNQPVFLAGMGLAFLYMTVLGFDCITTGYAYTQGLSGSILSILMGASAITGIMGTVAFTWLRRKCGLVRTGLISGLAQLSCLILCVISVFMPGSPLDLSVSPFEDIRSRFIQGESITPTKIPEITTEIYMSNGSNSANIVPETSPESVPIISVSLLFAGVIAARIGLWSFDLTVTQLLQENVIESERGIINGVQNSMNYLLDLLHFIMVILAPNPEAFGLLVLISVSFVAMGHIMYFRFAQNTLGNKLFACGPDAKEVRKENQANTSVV
Assay: In-vitro ferroportin internalization assay (luciferase reporter)
Format: cell-based
Settings: average pEC50; stably-transfected CHO cell line expressing human ferroportin tagged to a luciferase reporter; 6 h incubation with test compounds
Description: The protocol for this assay is generally as described in WO2018/128828, incorporated herein by reference in its entirety. Functional internalization of ferroportin protein was measured using a stably-transfected CHO cell line expressing the human ferroportin tagged to a luciferase reporter. Cells were plated for 24 h in the presence of ferric ammonium citrate (FAC). Ferroportin protein expression was induced with doxycycline for 24 h. The next day, the compounds were added. Test compounds were dissolved in DMSO. Cells were incubated with the test compounds for 6 h, and subsequently luciferase activity was measured using the Nano-Glo Luciferase Assay System and Glomax (Promega, Madison, Wis.).
The average pEC50 was determined for the test compounds.

pEC50	Compound
7.8	Fc1cccnc1CNc1ncnc2sc(CCNCCc3nc4ccccc4[nH]3)nc12 [Compound 1, 2-(2-{[2-(1H-1,3-benzodiazol-2-yl)ethyl]amino}ethyl)-N-[(3-fluoropyridin-2-yl)methyl]-[1,3]thiazolo[5,4-d]pyrimidin-7-amine]
7.3	Fc1cccnc1CNc1ncnc2oc(CCNCCc3nc4ccccc4[nH]3)nc12 [Compound 2, 2-(2-{[2-(1H-1,3-benzodiazol-2-yl)ethyl]amino}ethyl)-N-[(3-fluoropyridin-2-yl)methyl]-[1,3]oxazolo[5,4-d]pyrimidin-7-amine]
7.1	Fc1ccc2[nH]c(CCNCCc3nc4c(NCc5ncccc5F)ncnc4s3)nc2c1 [Compound 3, 2-(2-{[2-(5-fluoro-1H-1,3-benzodiazol-2-yl)ethyl]amino}ethyl)-N-[(3-fluoropyridin-2-yl)methyl]-[1,3]thiazolo[5,4-d]pyrimidin-7-amine]
6.6	c1ccc(CNc2ncnc3sc(CCNCCc4nc5ccccc5[nH]4)nc23)cc1 [Compound 4, 2-(2-{[2-(1H-1,3-benzodiazol-2-yl)ethyl]amino}ethyl)-N-benzyl-[1,3]thiazolo[5,4-d]pyrimidin-7-amine]
6.8	c1ccc(CNc2ncnc3sc(CCNCCc4nc5ccccc5[nH]4)nc23)nc1 [Compound 5, 2-(2-{[2-(1H-1,3-benzodiazol-2-yl)ethyl]amino}ethyl)-N-[(pyridin-2-yl)methyl]-[1,3]thiazolo[5,4-d]pyrimidin-7-amine]
7.8	Clc1cccnc1CNc1ncnc2sc(CCNCCc3nc4ccccc4[nH]3)nc12 [Compound 6, 2-(2-{[2-(1H-1,3-benzodiazol-2-yl)ethyl]amino}ethyl)-N-[(3-chloropyridin-2-yl)methyl]-[1,3]thiazolo[5,4-d]pyrimidin-7-amine]
6.7	Fc1cccnc1CNc1ncnc2sc(CCNCc3nc4ccccc4[nH]3)nc12 [Compound 7, 2-(2-{[(1H-1,3-benzodiazol-2-yl)methyl]amino}ethyl)-N-[(3-fluoropyridin-2-yl)methyl]-[1,3]thiazolo[5,4-d]pyrimidin-7-amine]
6.4	Fc1ccc(CNc2ncnc3sc(CCNCCc4nc5ccccc5[nH]4)nc23)nc1 [Compound 8, 2-(2-{[2-(1H-1,3-benzodiazol-2-yl)ethyl]amino}ethyl)-N-[(5-fluoropyridin-2-yl)methyl]-[1,3]thiazolo[5,4-d]pyrimidin-7-amine]
6.3	c1cnc(CNc2ncnc3sc(CCNCCc4nc5ccccc5[nH]4)nc23)nc1 [Compound 9, 2-(2-{[2-(1H-1,3-benzodiazol-2-yl)ethyl]amino}ethyl)-N-[(pyrimidin-2-yl)methyl]-[1,3]thiazolo[5,4-d]pyrimidin-7-amine]
5.7	CN(CCc1nc2ccccc2[nH]1)CCc1nc2c(NCc3ncccc3F)ncnc2s1 [Compound 10, 2-(2-{[2-(1H-1,3-benzodiazol-2-yl)ethyl](methyl)amino}ethyl)-N-[(3-fluoropyridin-2-yl)methyl]-[1,3]thiazolo[5,4-d]pyrimidin-7-amine]
6.7	COc1cccnc1CNc1ncnc2sc(CCNCCc3nc4ccccc4[nH]3)nc12 [Compound 11, 2-(2-{[2-(1H-1,3-benzodiazol-2-yl)ethyl]amino}ethyl)-N-[(3-methoxypyridin-2-yl)methyl]-[1,3]thiazolo[5,4-d]pyrimidin-7-amine]
7.3	Cc1cccnc1CNc1ncnc2sc(CCNCCc3nc4ccccc4[nH]3)nc12 [Compound 12, 2-(2-{[2-(1H-1,3-benzodiazol-2-yl)ethyl]amino}ethyl)-N-[(3-methylpyridin-2-yl)methyl]-[1,3]thiazolo[5,4-d]pyrimidin-7-amine]
8	Fc1cccnc1CNc1nccc2oc(CCNCCc3nc4ccccc4[nH]3)nc12 [Compound 13, 2-(2-{[2-(1H-1,3-benzodiazol-2-yl)ethyl]amino}ethyl)-N-[(3-fluoropyridin-2-yl)methyl]-[1,3]oxazolo[4,5-c]pyridin-4-amine]
7.8	Fc1cccnc1CNc1nccc2sc(CCNCCc3nc4ccccc4[nH]3)nc12 [Compound 14, 2-(2-{[2-(1H-1,3-benzodiazol-2-yl)ethyl]amino}ethyl)-N-[(3-fluoropyridin-2-yl)methyl]-[1,3]thiazolo[4,5-c]pyridin-4-amine]
6.8	Fc1cccnc1CNc1ncnc2sc(CCNCCc3nc4c(F)cccc4[nH]3)nc12 [Compound 15, 2-(2-{[2-(4-fluoro-1H-1,3-benzodiazol-2-yl)ethyl]amino}ethyl)-N-[(3-fluoropyridin-2-yl)methyl]-[1,3]thiazolo[5,4-d]pyrimidin-7-amine]
5.6	Fc1cccnc1CNc1ncnc2sc(CCNCCc3nc4ccccc4o3)nc12 [Compound 16, 2-(2-{[2-(1,3-benzoxazol-2-yl)ethyl]amino}ethyl)-N-[(3-fluoropyridin-2-yl)methyl]-[1,3]thiazolo[5,4-d]pyrimidin-7-amine]
7.7	[N-]=[N+]=Nc1cccnc1CNc1ncnc2sc(CCNCCc3nc4ccccc4[nH]3)nc12 [Compound 17, N-[(3-azidopyridin-2-yl)methyl]-2-(2-{[2-(1H-1,3-benzodiazol-2-yl)ethyl]amino}ethyl)-[1,3]thiazolo[5,4-d]pyrimidin-7-amine]
5.7	COc1nc(NCc2ncccc2F)c2nc(CCNCCc3nc4ccccc4[nH]3)sc2n1 [Compound 18, 2-(2-{[2-(1H-1,3-benzodiazol-2-yl)ethyl]amino}ethyl)-N-[(3-fluoropyridin-2-yl)methyl]-5-methoxy-[1,3]thiazolo[5,4-d]pyrimidin-7-amine]
6.2	COc1cc2sc(CCNCCc3nc4ccccc4[nH]3)nc2c(NCc2ncccc2F)n1 [Compound 19, 2-(2-{[2-(1H-1,3-benzodiazol-2-yl)ethyl]amino}ethyl)-N-[(3-fluoropyridin-2-yl)methyl]-6-methoxy-[1,3]thiazolo[4,5-c]pyridin-4-amine]
7.5	Fc1cccnc1CNc1ncnc2sc(C3CN(CCc4nc5ccccc5[nH]4)C3)nc12 [Compound 20, 2-{1-[2-(1H-1,3-benzodiazol-2-yl)ethyl]azetidin-3-yl}-N-[(3-fluoropyridin-2-yl)methyl]-[1,3]thiazolo[5,4-d]pyrimidin-7-amine]
6.2	Nc1nc(NCc2ncccc2F)c2nc(CCNCCc3nc4ccccc4[nH]3)sc2n1 [Compound 21, 2-(2-{[2-(1H-1,3-benzodiazol-2-yl)ethyl]amino}ethyl)-N7-[(3-fluoropyridin-2-yl)methyl]-[1,3]thiazolo[5,4-d]pyrimidine-5,7-diamine]
6.5	C#CCCC1(CCC(=O)Nc2ccc3[nH]c(CCNCCc4nc5c(NCc6ncccc6F)ncnc5s4)nc3c2)N=N1 [Compound 22, 3-[3-(but-3-yn-1-yl)-3H-diazirin-3-yl]-N-[2-(2-{[2-(7-{[(3-fluoropyridin-2-yl)methyl]amino}-[1,3]thiazolo[5,4-d]pyrimidin-2-yl)ethyl]amino}ethyl)-1H-1,3-benzodiazol-5-yl]propanamide]
8.8	Oc1nc(NCc2ncccc2F)c2nc(CCNCCc3nc4ccccc4[nH]3)sc2n1 [Compound 23, 2-(2-{[2-(1H-1,3-benzodiazol-2-yl)ethyl]amino}ethyl)-7-{[(3-fluoropyridin-2-yl)methyl]amino}-[1,3]thiazolo[5,4-d]pyrimidin-5-ol]
5.8	CC(CNCCc1nc2ccccc2[nH]1)c1nc2c(NCc3ncccc3F)ncnc2s1 (stereo not drawn) [Compound 24, 2-(1-{[2-(1H-1,3-benzodiazol-2-yl)ethyl]amino}propan-2-yl)-N-[(3-fluoropyridin-2-yl)methyl]-[1,3]thiazolo[5,4-d]pyrimidin-7-amine]
6.3	Fc1cccnc1CNc1ncnc2sc(C3(F)CN(CCc4nc5ccccc5[nH]4)C3)nc12 [Compound 25, 2-{1-[2-(1H-1,3-benzodiazol-2-yl)ethyl]-3-fluoroazetidin-3-yl}-N-[(3-fluoropyridin-2-yl)methyl]-[1,3]thiazolo[5,4-d]pyrimidin-7-amine]
6.5	C[C@H](Cc1nc2c(NCc3ncccc3F)ncnc2s1)NCCc1nc2ccccc2[nH]1 [Compound 26, 2-[(2R)-2-{[2-(1H-1,3-benzodiazol-2-yl)ethyl]amino}propyl]-N-[(3-fluoropyridin-2-yl)methyl]-[1,3]thiazolo[5,4-d]pyrimidin-7-amine]
6.2	COC(=O)c1ccc2[nH]c(CCNCCc3nc4c(NCc5ncccc5F)ncnc4s3)nc2c1 [Compound 27, Methyl 2-(2-{[2-(7-{[(3-fluoropyridin-2-yl)methyl]amino}-[1,3]thiazolo[5,4-d]pyrimidin-2-yl)ethyl]amino}ethyl)-1H-1,3-benzodiazole-5-carboxylate]
